Test results published in patent US6855710B2, “Substituted indolines with an inhibitory effect on various kinases and complexes of CDKs” (Boehringer Ingelheim Pharma KG, priority 1998, dated 2005).

| Structure (SMILES) | melting point |
| --- | --- |
| CC(C)(C)OC(=O)NCCc1ccc(N/C(=C2\C(=O)Nc3ccc([N+](=O)[O-])cc32)c2ccc(CN)cc2)cc1 [Example 155, (Z)-3-{1-[4-(2-tert.butoxycarbonylamino-ethyl)-phenylamino]-1-(4-aminomethyl-phenyl)-methylidene}-5-nitro-2-indolinone] | 215 to 217 °C (dec.) |
| CC(=O)NCc1ccc(/C(Nc2ccc(CCNC(=O)OC(C)(C)C)cc2)=C2/C(=O)Nc3ccc([N+](=O)[O-])cc32)cc1 [Example 157, (Z)-3-{1-[4-(2-tert.butoxycarbonylamino-ethyl)-phenylamino]-1-(4-acetylaminomethyl-phenyl)-methylidene}-5-nitro-2-indolinone] | 94 °C (dec.) |
| CCN(CC)Cc1ccc(N/C(=C2\C(=O)Nc3ccc([N+](=O)[O-])cc32)c2ccccc2)cc1 [Example 159, (Z)-3-[1-(4-diethylaminomethyl-phenylamino)-1-phenyl-methylidene]-5-nitro-2-indolinone] | 173 to 174 °C |
| CCNCc1ccc(N/C(=C2\C(=O)Nc3ccc([N+](=O)[O-])cc32)c2ccccc2)cc1 [Example 160, (Z)-3-[1-(4-ethylaminomethyl-phenylamino)-1-phenyl-methylidene]-5-nitro-2-indolinone] | 220 to 223 °C |
| CCCN(CCC)Cc1ccc(N/C(=C2\C(=O)Nc3ccc([N+](=O)[O-])cc32)c2ccccc2)cc1 [Example 161, (Z)-3-[1-(4-Dipropylaminomethyl-phenylamino)-1-phenyl-methylidene]-5-nitro-2-indolinone] | 160 to 162 °C |
| CC(C)CN(Cc1ccc(N/C(=C2\C(=O)Nc3ccc([N+](=O)[O-])cc32)c2ccccc2)cc1)CC(C)C [Example 163, (Z)-3-[1-(4-Diisobutylaminomethyl-phenylamino)-1-phenyl-methylidene]-5-nitro-2-indolinone] | 204 to 207 °C |
| CCCCNCc1ccc(N/C(=C2\C(=O)Nc3ccc([N+](=O)[O-])cc32)c2ccccc2)cc1 [Example 166, (Z)-3-[1-(4-butylaminomethyl-phenylamino)-1-phenyl-methylidene]-5-nitro-2-indolinone] | 183 °C |
| O=C1Nc2ccc([N+](=O)[O-])cc2/C1=C(/Nc1ccc(CN2CCC(O)CC2)cc1)c1ccccc1 [Example 168, (Z)-3-{1-[4-(4-hydroxypiperidinomethyl)-phenylamino]-1-phenyl-methylidene}-5-nitro-2-indolinone] | 155 °C |
| COC1CCN(Cc2ccc(N/C(=C3\C(=O)Nc4ccc([N+](=O)[O-])cc43)c3ccccc3)cc2)CC1 [Example 171, (Z)-3-{1-[4-(4-methoxypiperidinomethyl)-phenylamino]-1-phenyl-methylidene}-5-nitro-2-indolinone] | 204 to 206 °C |
| O=C1Nc2ccc([N+](=O)[O-])cc2/C1=C(/Nc1ccc(CN2CCC(Cc3ccccc3)CC2)cc1)c1ccccc1 [Example 172, (Z)-3-{1-[4-(4-phenylmethyl-piperidinomethyl)-phenylamino]-1-phenyl-methylidene}-5-nitro-2-indolinone] | 252 °C |
| CN(c1cccc(N/C(=C2\C(=O)Nc3ccccc32)c2ccccc2)c1)S(C)(=O)=O [Example 184, (Z)-3-{1-[3-(N-methyl-N-methylsulphonyl-amino)-phenylamino]-1-phenyl-methylidene}-2-indolinone] | 261 °C |
| CN(c1ccc(N/C(=C2\C(=O)Nc3ccccc32)c2ccccc2)cc1)S(C)(=O)=O [Example 186, (Z)-3-{1-[4-(N-methyl-N-methylsulphonyl-amino)-phenylamino]-1-phenyl-methylidene}-2-indolinone] | 269 °C |
| CS(=O)(=O)N(CC#N)c1ccc(N/C(=C2\C(=O)Nc3ccccc32)c2ccccc2)cc1 [Example 187, (Z)-3-{1-[4-(N-cyanomethyl-N-methylsulphonyl-amino)-phenyl-amino]-1-phenyl-methylidene}-2-indolinone] | 266 to 268 °C |
| CN(C)CCNC(=O)CN(c1ccc(N/C(=C2\C(=O)Nc3ccccc32)c2ccccc2)cc1)S(C)(=O)=O [Example 194, (Z)-3-{1-[4-(N-(2-dimethylamino-ethylaminocarbonylmethyl)-N-methylsulphonyl-amino)-phenylamino]-1-phenyl-methylidene}-2-indolinone] | 214 to 216 °C |
| CS(=O)(=O)Nc1ccc(N/C(=C2\C(=O)Nc3ccc([N+](=O)[O-])cc32)c2ccccc2)cc1 [Example 196, (Z)-3-[(4-methylsulphonylamino-phenylamino)-1-phenyl-methylidene]-5-nitro-2-indolinone] | 344 to 346 °C |

Second part, the compound after the results:

| melting point | Structure (SMILES) |
| --- | --- |
| 201 to 202 °C | CCCNCc1ccc(N/C(=C2\C(=O)Nc3ccc([N+](=O)[O-])cc32)c2ccccc2)cc1 [Example 162, (Z)-3-[1-(4-propylaminomethyl-phenylamino)-1-phenyl-methylidene]-5-nitro-2-indolinone] |
| 208 °C | CC(C)CNCc1ccc(N/C(=C2\C(=O)Nc3ccc([N+](=O)[O-])cc32)c2ccccc2)cc1 [Example 164, (Z)-3-[1-(4-isobutylaminomethyl-phenylamino)-1-phenyl-methylidene]-5-nitro-2-indolinone] |
| 175 °C | CCCCN(CCCC)Cc1ccc(N/C(=C2\C(=O)Nc3ccc([N+](=O)[O-])cc32)c2ccccc2)cc1 [Example 165, (Z)-3-[1-(4-Dibutylaminomethyl-phenylamino)-1-phenyl-methylidene]-5-nitro-2-indolinone] |
| 294 to 296 °C | CS(=O)(=O)NCc1ccc(N/C(=C2\C(=O)Nc3ccc([N+](=O)[O-])cc32)c2ccccc2)cc1 [Example 167, (Z)-3-[1-(4-methylsulphonylaminomethyl-phenylamino)-1-phenyl-methylidene]-5-nitro-2-indolinone] |
| 161 °C | CC1CCN(Cc2ccc(N/C(=C3\C(=O)Nc4ccc([N+](=O)[O-])cc43)c3ccccc3)cc2)CC1 [Example 169, (Z)-3-{1-[4-(4-methylpiperidinomethyl)-phenylamino]-1-phenyl-methylidene}-5-nitro-2-indolinone] |
| 184 to 185 °C | COCCNCc1ccc(N/C(=C2\C(=O)Nc3ccc([N+](=O)[O-])cc32)c2ccccc2)cc1 [Example 174, (Z)-3-{1-[4-(2-methoxyethylaminomethyl)-phenylamino]-1-phenyl-methylidene}-5-nitro-2-indolinone] |
| 225 to 227 °C | CCC1CCN(Cc2ccc(N/C(=C3\C(=O)Nc4ccc([N+](=O)[O-])cc43)c3ccccc3)cc2)CC1 [Example 175, (Z)-3-{1-[4-(4-ethylpiperidinomethyl)-phenylamino]-1-phenyl-methylidene}-5-nitro-2-indolinone] |
| 194 °C | CCOC(=O)C1CCN(Cc2ccc(N/C(=C3\C(=O)Nc4ccc([N+](=O)[O-])cc43)c3ccccc3)cc2)CC1 [Example 176, (Z)-3-{1-[4-(4-ethoxycarbonyl-piperidinomethyl)-phenylamino]-1-phenyl-methylidene}-5-nitro-2-indolinone] |
| 207 °C | O=C1Nc2ccc([N+](=O)[O-])cc2/C1=C(/Nc1ccc(CN2CCC(C(=O)O)CC2)cc1)c1ccccc1 [Example 177, (Z)-3-{1-[4-(4-carboxypiperidinomethyl)-phenylamino]-1-phenyl-methylidene}-5-nitro-2-indolinone] |
| 139 to 140 °C | CCOC(=O)CNCCc1ccc(N/C(=C2\C(=O)Nc3ccc([N+](=O)[O-])cc32)c2ccccc2)cc1 [Example 178, (Z)-3-{1-[4-(2-ethoxycarbonylmethylamino-ethyl)-phenylamino]-1-phenyl-methylidene}-5-nitro-2-indolinone] |
| 238 to 240 °C | COC(=O)Cc1ccc(N/C(=C2\C(=O)Nc3ccc([N+](=O)[O-])cc32)c2ccccc2)cc1 [Example 180, (Z)-3-[1-(4-methoxycarbonylmethyl-phenylamino)-1-phenyl-methylidene]-5-nitro-2-indolinone] |
| 275 °C | CS(=O)(=O)Nc1cccc(N/C(=C2\C(=O)Nc3ccccc32)c2ccccc2)c1 [Example 183, (Z)-3-[1-(3-methylsulphonylamino-phenylamino)-1-phenyl-methylidene]-2-indolinone] |
| 299 to 301 °C | CS(=O)(=O)Nc1ccc(N/C(=C2\C(=O)Nc3ccccc32)c2ccccc2)cc1 [Example 185, (Z)-3-[1-(4-methylsulphonylamino-phenylamino)-1-phenyl-methylidene]-2-indolinone] |
| 249 to 250 °C | CS(=O)(=O)N(CCN1CCOCC1)c1ccc(N/C(=C2\C(=O)Nc3ccccc32)c2ccccc2)cc1 [Example 189, (Z)-3-{1-[4-(N-(2-morpholinoethyl)-N-methylsulphonyl-amino)-phenylamino]-1-phenyl-methylidene}-2-indolinone] |
| 276 to 278 °C | CS(=O)(=O)N(CC(N)=O)c1ccc(N/C(=C2\C(=O)Nc3ccccc32)c2ccccc2)cc1 [Example 191, (Z)-3-{1-[4-(N-aminocarbonylmethyl-N-methylsulphonyl-amino)-phenylamino]-1-phenyl-methylidene}-2-indolinone] |
| 268 to 270 °C | CNC(=O)CN(c1ccc(N/C(=C2\C(=O)Nc3ccccc32)c2ccccc2)cc1)S(C)(=O)=O [Example 192, (Z)-3-{1-[4-(N-methylaminocarbonylmethyl-N-methylsulphonyl-amino)-phenylamino]-1-phenyl-methylidene}-2-indolinone] |
| 260 to 262 °C | CN(C)C(=O)CN(c1ccc(N/C(=C2\C(=O)Nc3ccccc32)c2ccccc2)cc1)S(C)(=O)=O [Example 193, (Z)-3-{1-[4-(N-dimethylaminocarbonylmethyl-N-methylsulphonylamino)-phenylamino]-1-phenyl-methylidene}-2-indolinone] |
| 265 to 268 °C | CCOC(=O)CCCN(c1ccc(N/C(=C2\C(=O)Nc3ccccc32)c2ccccc2)cc1)S(C)(=O)=O [Example 195, (Z)-3-{1-[4-(N-(3-ethoxycarbonyl-propyl)-N-methylsulphonyl-amino)-phenylamino]-1-phenyl-methylidene}-2-indolinone] |
